# Source: ChEMBL document CHEMBL5244242, “1,4-Benzodioxane, an evergreen, versatile scaffold in medicinal chemistry: A review of its recent applications in drug design” (Eur J Med Chem, 2020)
# pIC50: −log10 of the molar value.
# How the values were obtained:
# [1] = target: Prostaglandin G/H synthase 1 (Homo sapiens, UniProt P23219); experiment: Inhibition of COX1 (unknown origin)
# [2] = target: T1, Prostaglandin G/H synthase 2 (Homo sapiens, UniProt P35354); experiment: Inhibition of COX2 (unknown origin)
# T1 sequence (P35354 whole entry): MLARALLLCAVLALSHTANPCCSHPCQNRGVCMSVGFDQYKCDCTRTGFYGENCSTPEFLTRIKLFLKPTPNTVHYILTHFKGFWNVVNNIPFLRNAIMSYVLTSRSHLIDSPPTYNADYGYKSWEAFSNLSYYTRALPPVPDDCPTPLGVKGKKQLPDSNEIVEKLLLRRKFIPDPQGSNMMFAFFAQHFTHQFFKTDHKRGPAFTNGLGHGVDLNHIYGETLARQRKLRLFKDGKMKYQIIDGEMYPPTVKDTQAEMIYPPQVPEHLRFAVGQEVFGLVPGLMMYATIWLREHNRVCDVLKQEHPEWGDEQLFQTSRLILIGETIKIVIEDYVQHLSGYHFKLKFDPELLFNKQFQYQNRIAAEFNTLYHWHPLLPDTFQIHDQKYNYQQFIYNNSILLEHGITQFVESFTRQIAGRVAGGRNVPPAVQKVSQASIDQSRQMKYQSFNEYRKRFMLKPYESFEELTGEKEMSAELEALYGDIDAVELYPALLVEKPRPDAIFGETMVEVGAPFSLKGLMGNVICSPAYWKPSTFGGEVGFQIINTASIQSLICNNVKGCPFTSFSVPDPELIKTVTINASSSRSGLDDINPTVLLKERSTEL
# [3] = test system: A549; experiment: Anticancer activity against human A549 cells assessed as cell growth inhibition incubated for 24 hrs by MTT assay; format: functional, cell-based; conditions: A549, 24 h
# [4] = test system: HeLa; experiment: Anticancer activity against human HeLa cells assessed as cell growth inhibition incubated for 24 hrs by MTT assay; format: functional, cell-based
# [5] = test system: HepG2; experiment: Anticancer activity against human HepG2 cells assessed as cell growth inhibition incubated for 24 hrs by MTT assay; format: functional, cell-based; conditions: HepG2, 24 h
# [6] = test system: U-251; experiment: Anticancer activity against human U-251 cells assessed as cell growth inhibition incubated for 24 hrs by MTT assay; format: functional, cell-based; conditions: U-251, 24 h
# [7] = target: T2, Tyrosine-protein kinase JAK3 (Homo sapiens, UniProt P52333); experiment: Inhibition of JAK3 (unknown origin) incubated for 20 mins
# T2 sequence (P52333 whole entry): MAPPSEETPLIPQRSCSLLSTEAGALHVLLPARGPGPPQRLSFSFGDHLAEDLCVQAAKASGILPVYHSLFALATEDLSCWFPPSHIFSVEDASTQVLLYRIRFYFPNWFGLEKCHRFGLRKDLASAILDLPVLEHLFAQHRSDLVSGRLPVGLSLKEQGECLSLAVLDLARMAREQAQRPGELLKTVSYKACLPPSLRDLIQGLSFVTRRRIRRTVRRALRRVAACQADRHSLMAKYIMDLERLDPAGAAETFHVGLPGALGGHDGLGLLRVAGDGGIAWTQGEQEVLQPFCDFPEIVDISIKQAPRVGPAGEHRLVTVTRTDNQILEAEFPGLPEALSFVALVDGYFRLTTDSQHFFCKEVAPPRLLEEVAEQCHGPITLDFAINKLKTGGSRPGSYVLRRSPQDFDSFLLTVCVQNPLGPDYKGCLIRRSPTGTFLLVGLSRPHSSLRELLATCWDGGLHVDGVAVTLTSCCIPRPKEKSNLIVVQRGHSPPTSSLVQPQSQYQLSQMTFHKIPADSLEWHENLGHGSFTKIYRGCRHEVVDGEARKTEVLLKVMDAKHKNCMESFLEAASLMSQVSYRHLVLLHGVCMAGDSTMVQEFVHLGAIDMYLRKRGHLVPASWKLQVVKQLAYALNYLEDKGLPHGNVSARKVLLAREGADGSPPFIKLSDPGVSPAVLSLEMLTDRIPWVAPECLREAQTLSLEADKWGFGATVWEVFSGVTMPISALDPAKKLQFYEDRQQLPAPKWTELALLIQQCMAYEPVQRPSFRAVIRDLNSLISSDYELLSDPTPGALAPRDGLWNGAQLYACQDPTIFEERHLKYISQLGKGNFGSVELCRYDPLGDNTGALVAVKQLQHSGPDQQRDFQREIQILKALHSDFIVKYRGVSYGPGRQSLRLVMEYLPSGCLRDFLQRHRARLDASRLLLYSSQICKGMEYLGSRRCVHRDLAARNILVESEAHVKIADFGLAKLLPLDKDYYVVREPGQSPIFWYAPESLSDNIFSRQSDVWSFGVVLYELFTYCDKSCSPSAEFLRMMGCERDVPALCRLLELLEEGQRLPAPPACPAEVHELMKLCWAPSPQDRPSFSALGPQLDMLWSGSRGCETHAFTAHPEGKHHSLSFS
# [8] = test system: Staphylococcus aureus; experiment: Antibacterial activity against Staphylococcus aureus assessed as bacterial growth inhibition incubated for 24 hrs by MTT based ELISA analysis; format: functional
# [9] = test system: Bacillus subtilis; experiment: Antibacterial activity against Bacillus subtilis assessed as bacterial growth inhibition incubated for 24 hrs by MTT based ELISA analysis; format: functional
# [10] = test system: Escherichia coli; experiment: Antibacterial activity against Escherichia coli FabH assessed as bacterial growth inhibition incubated for 24 hrs by MTT based ELISA analysis; format: functional, organism-based
# Prostaglandin G/H synthase 1, sequence (P23219 whole entry): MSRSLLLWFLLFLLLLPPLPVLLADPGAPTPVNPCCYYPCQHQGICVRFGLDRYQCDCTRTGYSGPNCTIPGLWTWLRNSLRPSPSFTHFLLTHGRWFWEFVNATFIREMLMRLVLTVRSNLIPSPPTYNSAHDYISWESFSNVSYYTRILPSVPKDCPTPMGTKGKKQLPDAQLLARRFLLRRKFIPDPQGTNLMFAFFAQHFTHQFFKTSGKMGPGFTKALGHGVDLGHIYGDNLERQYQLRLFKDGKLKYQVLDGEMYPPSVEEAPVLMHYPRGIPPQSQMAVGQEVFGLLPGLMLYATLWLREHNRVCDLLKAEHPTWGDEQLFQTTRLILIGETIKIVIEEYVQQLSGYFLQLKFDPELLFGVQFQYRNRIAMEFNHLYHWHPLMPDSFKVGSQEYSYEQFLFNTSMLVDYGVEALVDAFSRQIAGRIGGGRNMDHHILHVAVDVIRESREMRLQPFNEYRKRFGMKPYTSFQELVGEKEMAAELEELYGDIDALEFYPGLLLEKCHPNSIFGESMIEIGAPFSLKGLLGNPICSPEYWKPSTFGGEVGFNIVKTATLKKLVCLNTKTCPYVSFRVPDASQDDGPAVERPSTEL
structure (smiles),measurement,setting,value
COc1cc(C2Oc3cc(C=Cc4cc(O)cc(O)c4)ccc3OC2CO)cc(OC)c1O (stereo not drawn),pIC50,[1],5.72
same,pIC50,[2],5.00
O=C(OCCn1c([N+](=O)[O-])cnc1/C=C/c1ccc(Cl)cc1Cl)c1ccc2c(c1)OCCO2,pIC50,[3],7.19
same,pIC50,[4],7.68
same,pIC50,[5],7.80
same,pIC50,[6],7.36
same,pIC50,[7],8.05
O=C(CN1CCN(c2ccccn2)CC1)N1C(=O)S/C(=C\c2ccc3c(c2)OCCO3)C1=O,MIC,[8],1.5 µM
same,MIC,[9],1.5 µM
same,pIC50,[10],7.22
O=C(N/N=C/C=C/c1ccccc1[N+](=O)[O-])c1cccc2c1OCCO2,MIC,[8],1.5 µg/mL
same,MIC,[9],6 µg/mL
same,pIC50,[10],5.46
